Assay [1] addresses T1, sGC α1/β1 heterodimer (Homo sapiens, UniProt Q02108+Q02153).
T1 construct: expressed in transfected cells; host or cells: CHO-K1 (clone #7, CHO-K1/sGC)
T1 sequence (Q02108 1-690): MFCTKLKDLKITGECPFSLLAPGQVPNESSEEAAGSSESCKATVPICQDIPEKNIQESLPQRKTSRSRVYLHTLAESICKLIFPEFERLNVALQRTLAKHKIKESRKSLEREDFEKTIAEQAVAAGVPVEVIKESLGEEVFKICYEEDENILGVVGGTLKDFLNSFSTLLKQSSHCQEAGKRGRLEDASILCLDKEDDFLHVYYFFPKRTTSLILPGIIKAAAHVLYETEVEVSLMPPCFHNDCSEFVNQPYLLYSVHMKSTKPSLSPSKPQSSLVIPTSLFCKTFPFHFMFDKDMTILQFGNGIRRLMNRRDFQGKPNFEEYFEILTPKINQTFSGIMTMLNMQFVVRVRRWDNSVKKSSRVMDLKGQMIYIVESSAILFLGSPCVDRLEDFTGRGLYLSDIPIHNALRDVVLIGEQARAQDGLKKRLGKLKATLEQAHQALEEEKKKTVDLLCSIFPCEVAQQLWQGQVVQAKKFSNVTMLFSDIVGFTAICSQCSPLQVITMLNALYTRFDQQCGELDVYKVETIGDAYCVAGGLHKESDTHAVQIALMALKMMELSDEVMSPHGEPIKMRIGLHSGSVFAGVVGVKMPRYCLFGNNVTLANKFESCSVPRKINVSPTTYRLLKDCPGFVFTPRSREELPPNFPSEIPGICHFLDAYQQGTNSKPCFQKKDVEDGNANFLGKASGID
T1 sequence (Q02153 1-619): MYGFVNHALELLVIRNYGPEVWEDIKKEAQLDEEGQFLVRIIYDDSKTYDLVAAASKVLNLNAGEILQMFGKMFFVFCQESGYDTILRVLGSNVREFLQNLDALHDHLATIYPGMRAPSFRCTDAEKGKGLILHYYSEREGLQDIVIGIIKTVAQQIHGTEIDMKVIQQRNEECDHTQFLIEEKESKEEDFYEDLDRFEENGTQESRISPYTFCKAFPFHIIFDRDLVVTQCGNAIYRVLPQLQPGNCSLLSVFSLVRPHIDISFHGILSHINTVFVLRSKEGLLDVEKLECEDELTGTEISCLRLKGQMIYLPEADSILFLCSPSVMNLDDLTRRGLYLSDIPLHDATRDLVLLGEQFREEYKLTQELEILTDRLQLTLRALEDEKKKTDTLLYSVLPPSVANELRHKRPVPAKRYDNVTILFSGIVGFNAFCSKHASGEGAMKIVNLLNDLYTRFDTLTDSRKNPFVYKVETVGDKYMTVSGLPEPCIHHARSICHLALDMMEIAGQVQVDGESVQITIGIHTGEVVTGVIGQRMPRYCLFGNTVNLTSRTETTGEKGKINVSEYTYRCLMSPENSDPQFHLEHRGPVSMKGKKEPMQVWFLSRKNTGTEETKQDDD
The assay is described as follows: Cell-based sGC functional assay (CASA assay): cGMP generation in CHO-K1/sGC cells, HTRF detection. The conditions noted are these: for Emax: CHO-K1, percent activation relative to standard Compound A in CHO-K1/sGC cells, read-out: % Act.; for EC50: inflection point (IP) of cGMP generation in CHO-K1/sGC cells, 4P fit, activity expressed as percentage of Compound A. A digest of the protocol:
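cGMP was quantified by HTRF after 1 hr, 37° C exposure of thawed CHO-K1 cells expressing sGC α1/β1 to compound, with or without 1 μM DETA-NO. IBMX (0.5 mM) blocked cGMP breakdown, and DMSO was 2.5% final. Percent of standard Compound A's maximal cGMP was fitted (4P) for inflection point.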
A general note: Time-resolved FRET reads energy transfer from a long-lived donor to a nearby acceptor.

For assay [2], the system named is Spontaneously hypertensive rats (SHR). Nature of the assay: Acute efficacy in spontaneously hypertensive rats (SHR): telemetry blood pressure lowering after a single oral dose. It is filed as in vivo, rat. From the text:
Acute Efficacy in Spontaneously Hypertensive Rats (SHR)
Spontaneously hypertensive rats (SHR, male, Charles River) were implanted with DSI TA11PA-C40 telemetry device (Data Sciences, Inc., St. Paul, Minn.) under isoflurane or ketamine/metomidine anesthesia. The telemetry unit catheter was inserted into the descending aorta via the femoral artery and the telemetry device was implanted subcutaneously in the left flank area. Animals were allowed to recover from surgery for 14 days before the start of any studies. Blood pressure, heart rate, and activity signals from conscious, freely moving rats were recorded continuously for 30 seconds every 10 minutes. On the day prior to administration of compound, a single oral dose of vehicle (10% transcutol/20% Cremophor/70% water) was administered to all animals to establish baseline control data. The blood pressure lowering efficacy of compound (PO) or vehicle was evaluated following a single oral gavage. Data were collected as hourly averages, and changes in blood pressure were calculated by subtracting control baseline data on an hourly basis. Animals were maintained on normal diet with a 12 hour light-dark cycle.
Maximum peak decreases of systolic blood pressure (SBP) in SHR at a particular P.O. dose (mpk milligrams per kilogram) for the following representative compounds are provided. Category A=SBP in SHRs<20 mmHg; Category B=SBP in SHRs 20-40 mmHg; Category C=SBP in SHRs>40 mmHg

`CCc1cn2cc(-c3nc(N)c4c(n3)NC(=O)C4(C)c3ccc(F)cc3)nc(CCC(F)(F)C(F)(F)F)c2n1` (stereo not drawn) [Example 159A, 4-amino-2-(2-ethyl-8-(3,3,4,4,4-pentafluorobutyl)imidazo [1,2-a]pyrazin-6-yl)-5-(4-fluorophenyl)-5-methyl-5H-pyrrolo[2,3-d]pyrimidin-6(7H)-one]: in assay [1], the Emax is 103% and the midpoint of the response, the EC50, lay at 552 nM. Besides, the “Maximum peak decrease of systolic blood pressure (SBP) in SHR, Cat.” value (“Maximum peak decrease” for short) in assay [2] (P.O. 3.0 mpk) is “A (Category A=SBP in SHRs<20 mmHg)”.
`Cc1ccc(C2(C)C(=O)Nc3nc(-c4cn5ccnc5c(CCC(F)(F)C(F)(F)F)n4)nc(N)c32)cn1` (stereo not drawn) [Example 221A, 4-amino-5-methyl-5-(6-methylpyridin-3-yl)-2-(8-(3,3,4,4,4-pentafluorobutyl)imidazo [1,2-a]pyrazin-6-yl)-5H-pyrrolo[2,3-d]pyrimidin-6(7H)-one]: in assay [1], the Emax is 107% and a half-maximal effect (EC50) was put at 496 nM. The “Maximum peak decrease” value in assay [2] (P.O. 1.0 mpk) is given as “A (Category A=SBP in SHRs<20 mmHg)”.
With `CC1(c2ccc(Cl)cn2)C(=O)Nc2nc(-c3cn4ccnc4c(CCC(F)(F)C(F)(F)F)n3)nc(N)c21` (stereo not drawn) [Example 228A, 4-amino-5-(5-chloropyridin-2-yl)-5-methyl-2-(8-(3,3,4,4,4-pentafluorobutyl)imidazo [1,2-a]pyrazin-6-yl)-5H-pyrrolo[2,3-d]pyrimidin-6(7H)-one], in assay [1], the Emax amounted to 108% and the response was half-maximal at 20 nM (EC50). Also, the “Maximum peak decrease” value in assay [2] (P.O. 0.3 mpk) is given as “B (Category B=SBP in SHRs 20-40 mmHg)”.
On to `CCC1(c2ccc(Cl)c(F)c2)C(=O)Nc2nc(-c3cn4ccnc4c(CCC(F)(F)F)n3)nc(N)c21` (stereo not drawn) [Example 199A, 4-amino-5-(4-chloro-3-fluorophenyl)-5-ethyl-2-(8-(3,3,3-trifluoropropyl)imidazo[1,2-a]pyrazin-6-yl)-5H-pyrrolo[2,3-d]pyrimidin-6(7H)-one], for which, in assay [1], the Emax was determined as 101% and the EC50 amounted to 544 nM. In assay [2] (P.O. 3.0 mpk), the “Maximum peak decrease” value is “B (Category B=SBP in SHRs 20-40 mmHg)”.
Take `CC1(c2ccc(Cl)c(F)c2)C(=O)Nc2nc(-c3cn4ccnc4cn3)nc(N)c21` (stereo not drawn) [Example 140B, 4-amino-5-(4-chloro-3-fluorophenyl)-2-(imidazo[1,2-a]pyrazin-6-yl)-5-methyl-5H-pyrrolo[2,3-d]pyrimidin-6(7H)-one]: in assay [1], the Emax is 107% and a half-maximal effect (EC50) was put at 217 nM. Further, the “Maximum peak decrease” value in assay [2] (P.O. 0.3 mpk) is “B (Category B=SBP in SHRs 20-40 mmHg)”.
Turning to `CC1(c2ccc(Br)cc2)C(=O)Nc2nc(-c3cn4ccnc4c(CCC(F)(F)F)n3)nc(N)c21` (stereo not drawn) [Example 181A, 4-amino-5-(4-bromophenyl)-5-methyl-2-(8-(3,3,3-trifluoropropyl)imidazo[1,2-a]pyrazin-6-yl)-5H-pyrrolo[2,3-d]pyrimidin-6(7H)-one], in assay [1], the Emax came to 132% and the EC50 is 56 nM. Further, the “Maximum peak decrease” value in assay [2] (P.O. 1.0 mpk) was “B (Category B=SBP in SHRs 20-40 mmHg)”.
`COc1cn2cc(-c3nc(N)c4c(n3)NC(=O)C4(C)c3ccc(F)cc3)nc(CCCC(F)(F)F)c2n1` (stereo not drawn) [Example 176A, 4-amino-5-(4-fluorophenyl)-2-(2-methoxy-8-(4,4,4-trifluorobutyl)imidazo[1,2-a]pyrazin-6-yl)-5-methyl-5H-pyrrolo[2,3-d]pyrimidin-6(7H)-one]: in assay [1], the Emax is 107% and the EC50 worked out at 79 nM. In addition, the “Maximum peak decrease” value in assay [2] (P.O. 1.0 mpk) is listed as “B (Category B=SBP in SHRs 20-40 mmHg)”.
Regarding `CC1(c2ccc(F)cc2)C(=O)Nc2nc(-c3cn4ccnc4c(CCC(F)(F)F)n3)nc(N)c21` (stereo not drawn) [Example 184A, 4-amino-5-(4-fluorophenyl)-5-methyl-2-(8-(3,3,3-trifluoropropyl)imidazo[1,2-a]pyrazin-6-yl)-5H-pyrrolo[2,3-d]pyrimidin-6(7H)-one], in assay [1], the Emax was found to be 134% and the EC50 was determined as 176 nM. For the same compound, in assay [2] (P.O. 1.0 mpk), the “Maximum peak decrease” value is “B (Category B=SBP in SHRs 20-40 mmHg)”.
Taken in the same sequence, the figures for `CC1(c2ccccc2)C(=O)Nc2nc(-c3cn4ccnc4c(CCC(F)(F)C(F)(F)F)n3)nc(N)c21` (stereo not drawn) [Example 232B, 4-amino-5-methyl-2-(8-(3,3,4,4,4-pentafluorobutyl)imidazo [1,2-a]pyrazin-6-yl)-5-phenyl-5H-pyrrolo[2,3-d]pyrimidin-6(7H)-one] were 60%, 17 nM and “C (Category C=SBP in SHRs>40 mmHg)”.
`CCCCc1nc(-c2nc(N)c3c(n2)NC(=O)C3(c2ccc(Cl)cc2)C2CC2)cn2ccnc12` (stereo not drawn) [Example 332B, 4-amino-2-(8-butylimidazo[1,2-a]pyrazin-6-yl)-5-(4-chlorophenyl)-5-cyclopropyl-5H-pyrrolo[2,3-d]pyrimidin-6(7H)-one]: in assay [1], the Emax was 141% and the EC50 is 30 nM. For the same compound, the “Maximum peak decrease” value in assay [2] (P.O. 0.3 mpk) is given as “B (Category B=SBP in SHRs 20-40 mmHg)”.
With `CC1(c2ccc(F)cc2)C(=O)Nc2nc(-c3cn4ccnc4c(CCCC(F)(F)F)n3)nc(N)c21` (stereo not drawn) [Example 211A, 4-amino-5-(4-fluorophenyl)-5-methyl-2-(8-(4,4,4-trifluorobutyl)imidazo[1,2-a]pyrazin-6-yl)-5H-pyrrolo[2,3-d]pyrimidin-6(7H)-one], in assay [1], the Emax was 122% and the EC50 worked out at 75 nM. For the same compound, the “Maximum peak decrease” value in assay [2] (P.O. 0.3 mpk) was “A (Category A=SBP in SHRs<20 mmHg)”.
As for `Nc1nc(-c2cn3ccnc3c(CCC(F)(F)C(F)(F)F)n2)nc2c1C(c1ccc(F)cc1)(C1CC1)C(=O)N2` (stereo not drawn) [Example 233B, 4-amino-5-cyclopropyl-5-(4-fluorophenyl)-2-(8-(3,3,4,4,4-pentafluorobutyl)imidazo [1,2-a]pyrazin-6-yl)-5H-pyrrolo[2,3-d]pyrimidin-6(7H)-one], in assay [1], the Emax is 131% and a half-maximal effect (EC50) was put at 43 nM. In addition, in assay [2] (P.O. 0.3 mpk), the “Maximum peak decrease” value was “B (Category B=SBP in SHRs 20-40 mmHg)”.
With `CC1(c2ccc(C3CC3)nc2)C(=O)Nc2nc(-c3cn4ccnc4c(CCC(F)(F)C(F)(F)F)n3)nc(N)c21` (stereo not drawn) [Example 240B, 4-amino-5-(6-cyclopropylpyridin-3-yl)-5-methyl-2-(8-(3,3,4,4,4-pentafluorobutyl)imidazo [1,2-a]pyrazin-6-yl)-5H-pyrrolo[2,3-d]pyrimidin-6(7H)-one], in assay [1], the Emax stood at 105% and the EC50 amounted to 53 nM. Moreover, the “Maximum peak decrease” value in assay [2] (P.O. 1.0 mpk) is “A (Category A=SBP in SHRs<20 mmHg)”.
For `CC1(C)C(=O)Nc2nc(-c3cn4ccnc4c(Cc4ccccc4)n3)nc(N)c21` [Example 76, 4-amino-2-(8-benzylimidazo[1,2-a]pyrazin-6-yl)-5,5-dimethyl-5H-pyrrolo[2,3-d]pyrimidin-6(7H)-one] the same measures were 119%, 91 nM and “B (Category B=SBP in SHRs 20-40 mmHg)”.

Usually EC50 stands for the concentration that produces a half-maximal response. Lower therefore signals higher potency in that assay.

The values are drawn from patent US9796733B2, “Imidazo-pyrazine derivatives useful as soluble guanylate cyclase activators” (Merck Sharp & Dohme Corp., priority 2014, dated 2017).
